Tests used:
Assay type in all cases: cell-based
[1] = test system: bloodstream forms of T. b. rhodesiense STIB 900; assay: T. brucei rhodesiense STIB 900 growth inhibition assay; settings: Trypanosoma brucei, 72 h, read-out: IC50: I Org. Growth T. brucei rhodesiense STIB 900, 3 d [uM]
Excerpt: Example 110. T. brucei rhodesiense STIB 900 Growth Inhibition Assay
The parasite strain used in this assay was isolated in 1982 from a human patient in Tanzania and after several mouse passages cloned and adapted to axenic culture conditions, ((a) Baltz, T., D. Baltz, C. Giroud, and J. Crockett. EMBO Journal, 1985, 4:1273-1277. (b) Thuita, J. K., S. M. Karanja, T. Wenzler, R. E. Mdachi, J. M. Ngotho, J. M. Kagira, R. Tidwell, and R. Brun. Acta Tropica 2008, 108:6-10.) Minimum Essential Medium (50 μl) supplemented with 25 mM HEPES, 1 g/l additional glucose, 1% MEM non-essential amino acids (100×), 0.2 mM 2-mercaptoethanol, 1 mM Na-pyruvate and 15% heat inactivated horse serum was added to each well of a 96-well microtiter plate. Serial drug dilutions of seven 3-fold dilution steps covering a range from 90 to 0.123 μg/ml were prepared. Then 10^4 bloodstream forms of T. b. rhodesiense STIB 900 in 50 μl was added to each well and the plate incubated at 37° C. under a 5% CO2 atmosphere for 72 h. 10 μl Alamar Blue (resazurin, 12.5 mg in 100 ml double-distilled water) was then added to each well and incubation continued for a further 2-4 h, (Raz, B., M. Iten, Y. Grether-Buhler, R. Kaminsky, and R. Brun. Acta Trap 1997, 68:139-47.) Then the plates were read with a Spectramax Gemini XS microplate fluorometer (Molecular Devices Cooperation, Sunnyvale, Calif., USA) using an excitation wave length of 536 nm and an emission wave length of 588 nm. Data were analyzed using the microplate reader software Softmax Pro (Molecular Devices Cooperation, Sunnyvale, Calif., USA).

[2] = test system: L. infantum MHOM/MA(BE)/67 amastigotes in primary peritoneal mouse macrophages; assay: Leishmania infantum intracellular amastigote assay in mouse macrophages; settings: Macrophage, 120 h, read-out: Inhibition of Organism Growth in Leishmania infantum MHOM/MA/BE/67, 5 d [uM]
Protocol: Example 111. Leishmania infantum Intracellular Amastigote Assay in Mouse Macrophages
L. infantum MHOM/MA(BE)/67 amastigotes were collected from the spleen of an infected donor hamster and used to infect primary peritoneal mouse macrophages. (Kaiser, M., Maes, L., Tadoori, L. P., Spangenberg, T., Ioset, J.-R. J. Biomol. Screen. 2015 20(5), 634-35.) To determine in vitro antileishmanial activity, 3×10^4 macrophages were seeded in each well of a 96-well plate. Culture medium was RPMI-1640 supplemented with L-glutamine (20 mM), 16.5 mM sodium hydrogen carbonate, and 10% fetal calf serum (FCS). After 2 d of outgrowth, 5×10^5 amastigotes/well were added and incubated for 2 h at 37° C. Prediluted samples to be tested were subsequently added, and the plates were further incubated for 5 d at 37° C. and 5% CO2. Total parasite burdens in the well were microscopically assessed after Giemsa staining and expressed as a percentage of the total burden in the blank controls without compound. In treated wells with high amastigote burdens, an overall estimate of the total burden per well was made without discrimination between the number of infected macrophages and the number of amastigotes per infected cell. In treated wells with low burdens, exact counting was performed. The 50% inhibitory concentrations (IC50s) were then generated for each dose response test using GraphPad Prism (GraphPad Software Inc., San Diego, Calif.) using the nonlinear regression (sigmoidal dose-response/variable slope) equation.

[3] = test system: Trypanosoma brucei rhodesiense STIB 900 strain; assay: Trypanosoma brucei rhodesiense STIB 900 screening assay; settings: 72 h, read-out: Swiss TPH T b rhodesiense IC50
Protocol: Example 114. Trypanosoma brucei rhodesiense STIB 900 Screening Assay Procedure
The Trypanosoma brucei rhodesiense STIB 900 strain was isolated in 1982 from a human patient in Tanzania and after several mouse passages cloned and adapted to axenic culture conditions (Baltz, et al., EMBO Journal 4: 1273-1277 (1985); Thuita, et al., Acta Tropica 108: 6-10 (2008)). Minimum Essential Medium (50 μL) supplemented with 25 mM HEPES, 1 g/L additional glucose, 1% MEM non-essential amino acids (100×), 0.2 mM 2-mercaptoethanol, 1 mM Na-pyruvate and 15% heat inactivated horse serum was added to each well of a 96-well microtiter plate. Serial drug dilutions of seven 3-fold steps covering a range from 90 to 0.123 μg/mL were prepared. Then 10^4 bloodstream forms of T. b. rhodesiense STIB 900 in 50 μL was added to each well and the plate incubated at 37° C. under a 5% CO2 atmosphere for 72 h. 10 μL Alamar Blue (resazurin, 12.5 mg in 100 mL double-distilled water) was then added to each well and incubation continued for a further 2-4 h (Raz, et al., Acta Tropica 68: 139-47 (1997)). Then the plates were read with a Spectramax Gemini XS microplate fluorometer (Molecular Devices Corporation, Sunnyvale, Calif., USA) using an excitation wavelength of 536 nm and an emission wavelength of 588 nm. Data were transferred into the graphic program Softmax Pro (Molecular Devices), which calculated IC50 values.

[4] = test system: luciferase-expressing L. major parasites developing intracellularly inside RAW 264.7 macrophages; assay: Leishmania major intracellular amastigote assay in RAW 264.7 macrophages (luciferase); settings: RAW264.7, 96 hours, read-out: IC50: I Org. intracellular amastigote Growth L. major, 4 d
Excerpt: Example 107. Assay for Leishmania major Intracellular Amastigote Assay in RAW 264.7 Macrophages
The intracellular amastigote assay is a microtiter plate drug sensitivity assay that uses the activity of luciferase as a measure of proliferation of luciferase-expressing L. major parasites developing intracellularly inside RAW 264.7 macrophages in the presence of antileishmanial drugs or experimental compounds. (Buckner, F. S., and A. J. Wilson. Am J Prop Med Hyg, 2005, 72(5): 600-605.) As the activity of luciferase and its associated luminescence after addition of the substrate, luciferin, is relative to parasite growth, a test compound that inhibits the growth of the parasite will result in a lower luminescence. The luciferase-expressing L. major parasite used in this assay is genetically modified by adding the luciferase coding region to the pLEXSY-hyg2 vector (Jena Biosciences). The luciferase expression construct was created by digesting the luciferase coding region (1.66 kbp) of pGL3-Basic (Promega) by using two restriction enzymes, NcoI/EagI, followed by electrophoretic separation of the luciferase coding region on a 1% agarose gel. The luciferase coding region was then ligated into pLEXSY-hyg2 vector (Jena Biosciences) which had previously been digested with NcoI/NotI. The vector was linearized with SwaI and subsequently gel purified prior to transfection into L. major parasites. Transfections were carried out by electroporation at 480V, 13Ω, and 500 μF (0.4 mL of 1×10^8 parasites/mL, and 0.1 mL of 10 μg DNA). Selection for transfectants was then carried out using hygromycin B (100 μg/mL). RAW 264.7 macrophages were cultured in DMEM media (ATCC Cat #30-2002) supplemented with heat-inactivated 10% FBS (Invitrogen Cat #10438-034). To begin the assay, macrophages were harvested from culture by removing all spent media, adding in 10 mL fresh media, scraping cells, and counted using Trypan Blue. The cells were resuspended in DMEM/10% HIFBS media at 2.0×10^5 cells/mL, and then dispensed in a volume of 50 μL to yield a final concentration of 10,000 macrophages/well in 384 well tissue-culture treated sterile white plates (Nunc Cat #12-565-343) using a Tecan EVO Freedom robotics system. The plates were then incubated at 37° C. overnight in 5% CO2 atmosphere for 24 hours. After overnight incubation, the media was removed from each well using the Tecan EVO Freedom robot, and L. major promastigotes were added to each well and allowed to invade the RAW macrophages. Promastigotes were cultured in Schneider's medium (Invitrogen Cat #11720-067) supplemented with 20% heat inactivated FBS. Metacyclic stage promastigotes provide the best invasion for this assay, and cultures should be grown to increase the percentage of metacyclic promastigotes for best results. Promastigotes were harvested from culture, counted, suspended at 2×10^6 promastigotes/mL in DMEM/HIFBS media, and 100,000 promastigotes were dispensed per well in a volume of 50 μL. After overnight incubation, the media was removed from each well using the Tecan Freedom EVO robot, and each well was subsequently washed three times with 40 μF of fresh DMEM/HIFBS medium to remove all extracellular promastigotes. After the third wash, 69.2 μF of DMEM/HIFBS medium was added to each well using the Tecan EVO Freedom robot. Drug plates were prepared with the Tecan EVO Freedom using sterile 96 well plates containing twelve duplicate two-fold serial dilutions of each test compound suspended in DMSO. 7.8 μF of diluted test compound was added to the 69.2 μF of media present in each well providing a 10 fold final dilution of compound. The final concentration range tested was 0.5 to 10,000 ng/ml for all assays. The plates were next incubated at 37° C. and 5% CO2 for 96 hours. After 96 hours of incubation, 7.5 μF of a luciferin solution (Caliper Fife Science) diluted to 150 μg/mF was added to each well, and the plates were incubated for 30 minutes at 37° C., in the dark. […]

[5] = test system: promastigote forms of L. major; assay: Leishmania major promastigote growth inhibition assay (Alamar Blue); settings: promastigotes, 44 hours + 4 hours Alamar Blue, read-out: IC50: I Org. promastigote Growth L. major, 2 d
Excerpt: Example 108. Leishmania major Promastigote Growth Inhibition Assay
The promastigote assay is a microtiter plate drug sensitivity prescreen assay used to determine antileishmanial activity of candidate drugs against promastigote forms of L. major. (Shadow et al., PLOS Neglected Tropical Diseases, 2009, e311.) Alamar Blue, or resazurin, is a non-fluorescent indicator dye that is converted to bright red-fluorescent resorufin via the activity of mitochondrial reductases. As the activity of mitochondrial reductases is reduced in cells that are dead or dying, and the intensity of the fluorescence is relative to cell number, a test compound that kills or inhibits growth of a particular target cell, such as L. major, will result in a lower production of fluorescent signal. Pre-dosed microtiter drug plates for use in the promastigote drug prescreen assay were produced using sterile 384-well black optical bottom tissue culture plates (Nunc Cat #12-565-344). Candidate drugs were diluted in dimethyl sulfoxide in four 96-well plates to either 10,000 ng/ml or 1,000 ng/ml, and 4.25 μL of diluted drug was subsequently dispensed into each well of a 384-well plate. Duplicate 384 well plates were made at each test concentration (10,000 ng/mL and 1,000 ng/mL) and amphotericin B was used as a batch control. The Tecan EVO Freedom liquid handling system (Tecan US, Inc., Durham, N.C.) was used to produce all drug assay plates and conduct all pipetting operations for this assay. L. major parasites were cultured in Schneider's medium (Lonza Cat #04-351Q) supplemented with 20% heat inactivated FBS (Invitrogen Cat #16140-089). Promastigotes in early log growth phase were harvested from culture, counted, suspended at 1.32×10^5 cells/mF and 5,000 promastigotes were dispensed into each well of the 384 well plate in a volume of 38.8 μL. The 384 well plates were subsequently incubated at 28° C. for 44 hours. 8.4 μF of Alamar Blue (Promega, Cat #G8081) was added to each well, the plates were subsequently incubated at 28° C. and 5% CO2 for 4 hours and then examined for the relative fluorescence units (RFU) per well using the Tecan Genios Plus (Tecan US, Inc., Durham, N.C.) with excitation set at 560 nm and emission set at 590 nm. The relative fluorescence from each well was used to determine the percent growth inhibition of each candidate compound tested. Compounds with 50% or greater inhibition of growth were selected for further analysis to determine IC50 values.

[6] = test system: TdTomato-modified T. cruzi (CL strain) in Vero cells; assay: In vitro IC50 measurement of T. cruzi amastigote killing using TdTomato-modified T. cruzi (CL strain); settings: Trypanosoma cruzi, 72 h, fluorescence, read-out: IC50: I Org. amastigote Growth T. cruzi CL TdTomato, 3 d
Protocol: Example 112. In Vitro IC50 Measurement of T. cruzi Amastigote Killing Using TdTomato-Modified T. cruzi (CL Strain)
The T. cruzi parasites used in this assay were genetically modified to express Td Tomato fluorescent protein. Vero cells (African green monkey kidney epithelial cells) were harvested from continuous cultures using trypsin and added to the inner 60 wells of 96-well Greiner Bio One plates (plate catalog #655090) at 200 ul/well of […]. Cells were allowed to adhere for 1 h before infection with T. cruzi. T. cruzi for infection were harvested from previously-infected Vero cells, washed, pelleted and resuspended at 5×10^6/mL. 50 uL of parasites were added to each well containing Vero cells. Compounds were prepared from 5 mM stock concentrations in DMSO to final concentrations in wells ranging from 5 uM to 5 nM. Wells were provided for negative controls, lacking compounds. Plates were placed into a 37° C. incubator for 20 min, then a “Day 0” reading was taken on a Synergy H4 plate reader to record initial fluorescence levels, at 544 (excitation) and 612 nm (emission). 96-well plates were placed in Tupperware containers with wet paper towels and incubated at 37° C. incubator for 72 h. After 72 h plates were reread (Day 3 reading) and data analyzed using Excel and/or Graphpad software. Day 0 fluorescence was subtracted from Day 3 to remove input parasite fluorescence. Growth curves are generated and 50% and 90% inhibitory concentrations are determined by nonlinear regression analysis.

Row | Compound | IC50 [1] [µM] | IC50 [2] [µM] | IC50 [3] [nM] | IC50 [4] [nM] | IC50 [5] [nM] | IC50 [6] [nM]
1 | COc1cccc(-n2cc(C(=O)Nc3ccc4c(c3)B(O)OC4)nn2)n1 [Example 64, N-(1-hydroxy-1,3-dihydrobenzo[c][12]oxaborol-6-yl)-1-(6-methoxypyridine-2-yl)-1H-1,2,3-triazole-4-carboxamide] | 0.1 to 0.3 | < 3 | < 100 |  |  | 
2 | Cc1c(C(=O)Nc2ccc3c(c2)B(O)OC32CCC2)nnn1-c1ccccn1 [Example 27, N-(1-hydroxy-1H-spiro[benzo[c][1,2]oxaborole-3,1′-cyclobutan]-6-yl)-5-methyl-1-(pyridin-2-yl)-1H-1,2,3-triazole-4-carboxamide] |  |  |  | 1100 to 9900 | 600 to 2500 | < 600

Reference: US11691992B2 (Anacor Pharmaceuticals, Inc., priority 2017, dated 2023)
